In patent US20190183851A1, “USE OF 3,4,7-TRIHYDROXYISOFLAVONE OR 3-METHOXYDAIDZEIN IN PREPARATION OF DRUG FOR INHIBITING PLATELET AGGREGATION AND THROMBOSIS” (Kunming Institute of Zoology, Chinese Academy of Sciences, priority 2017, published 2019):

Experiments:
washed human platelets = experiment: collagen-induced platelet aggregation in washed human platelets; assay type: cell-based; conditions: 0.6 μg/mL collagen
Procedure: The collagen-induced platelet aggregation was detected by using washed human platelets. […] The platelet washing method was as follows: a. 1.4 mL platelets (concentrated platelet plasma) were poured into each 1.5 mL EP tube, and centrifuged at 400 g under room temperature for 5 min, and the supernatant was discarded; b. the platelets in each tube were resuspended with 0.5 mL of a tyrode A solution, and two tubes of resuspended platelets were combined into a new 1.5 mL EP tube, mixed well and centrifuged at 400 g under room temperature for 5 min; c. the platelets in each tube were resuspended with 1 mL of the tyrode A solution, transferred into a new EP tube, and centrifuged at room temperature at 400 g under room temperature for 5 min; d. the platelets in each tube were resuspended with 1 mL of a tyrode B solution, and the platelets were adjusted to an appropriate concentration with the tyrode B solution.

Healthy human platelets = experiment: ADP-induced platelet aggregation in PRP; assay type: cell-based; conditions: 70 μmol/L ADP; for concentration dependence of inhibition of ADP-induced platelet aggregation: FIGS. 3 and 4
Procedure: Healthy human platelets were diluted with plasma to 2.5×10^8 platelets per mL. 300 μL of plasma-rich platelets was taken, added into different concentrations of samples at 37° C. and maintained at this temperature for 5 min, then added with 70 μmol/L ADP to induce aggregation, and an aggregation curve within 5 min was plotted on a platelet aggregation instrument. Platelet aggregation without sample treatment was used as a control.
300 μM of 3-methoxydaidzein could inhibit about 50% of platelet aggregation, while 100 μM of 3,4,7-trihydroxyisoflavone could inhibit about 50% of platelet aggregation.

mouse-tail thrombus = experiment: carrageenan-induced mouse-tail thrombosis model; assay type: in vivo, Kunming mice; conditions: 24 h; for rate of thrombus inhibition versus dose: gavage 33, 100 and 300 μmol/kg; for rate of thrombus inhibition versus dose / inhibition of thrombosis in mouse tail versus negative control: carrageenan 40 mg/kg i.p.
Procedure: This embodiment relates to a carrageenan-induced mouse-tail thrombosis model.
The experiment animals, male Kunming mice, each with a body weight of 20-25 g, were randomly divided into groups (n=10) after fed for one week. The first group was a DMSO control group, the sample groups were gavaged with 3,4,7-trihydroxyisoflavone and 3-methoxydaidzein at concentrations respectively of 33, 100 and 300 μmol/kg, and the positive control was gavaged with 300 μmol/kg clopidogrel. 30 min after intragastric administration, carrageenan (type I, Sigma) was injected intraperitoneally into the mice at a dose of 40 mg/kg. Since the rate of thrombosis was >90% at a low temperature, the feeding temperature was 18° C. After 24 h, the mean length of thrombosis was determined according to the color change of the tail skin.

[1] = tested on: tail bleeding time of the mouse; experiment: evaluation of bleeding risk, tail bleeding time; assay type: in vivo, C57BL/6 mice; conditions: 80 mg/kg by gavage; 3, 6 and 12 hours after administration; mice
Procedure: This embodiment relates to an evaluation of bleeding risk of 3,4,7-trihydroxyisoflavone and 3-methoxydaidzein.
Each group included 8 male C57BL/6 (18-20 g). The test sample group and the control group were administered by gavage. After 3, 6 and 12 hours of administration, the mice were placed into a self-made special holder to make the tails pass through a trimmed 1 mL pipette tip. 5 mm of the tail tip was cut off with a sterilized razor blade, and the mouse tail was immediately immersed into normal saline at 37° C. The bleeding time of the tail was observed by using the bloodstream stop time as an indicator.

Structure (SMILES)	concentration dependence of inhibition of collagen-induced platelet aggregation (washed human platelets; FIGS. 1 and 2)	inhibition of platelet aggregation (washed human platelets; 20 μM compound, washed human platelets)	concentration dependence of inhibition of ADP-induced platelet aggregation (Healthy human platelets)	inhibition at 100 µM (Healthy human platelets; Homo sapiens, Platelet, 100 μM compound) [%]	average thrombus length compared with clopidogrel (mouse-tail thrombus; gavage 300 μmol/kg, compared with 300 μmol/kg clopidogrel)	rate of thrombus inhibition versus dose (mouse-tail thrombus)	inhibition of thrombosis in mouse tail versus negative control (mouse-tail thrombus; oral 100 μmol/kg)	tail bleeding activity versus non-administrated group (FIG. 8) [1]	inhibition at 20 µM (washed human platelets; Platelet, 20 μM compound, washed human platelets) [%]	inhibition at 300 µM (Healthy human platelets; Homo sapiens, Platelet, 300 μM compound) [%]	inhibition of thrombosis in mouse tail versus negative control (mouse-tail thrombus; oral 300 μmol/kg)	tail bleeding activity versus non-administrated group (FIG. 9) [1]
O=c1c(-c2ccc(O)c(O)c2)coc2cc(O)ccc12 [3,4,7-trihydroxyisoflavone]	gradient-dependent manner	completely inhibit	gradient-dependent manner	~50	shorter than that of the group gavaged with 300 μmol/kg of clopidogrel	increased along with the increase of concentration	significantly inhibit	did not show any significant bleeding activity	–	–	–	–
COc1cc(-c2coc3cc(O)ccc3c2=O)ccc1O [3-methoxydaidzein]	–	–	gradient-dependent manner	–	–	increased along with the increase of concentration	–	–	~50	~50	significantly inhibit	did not show any significant bleeding activity
COC(=O)[C@H](c1ccccc1Cl)N1CCc2sccc2C1 [clopidogrel, reference compound]	–	–	–	–	–	–	–	increased bleeding significantly	–	–	–	increased bleeding significantly
